Reference: PubChem BioAssay (NCI)
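96-well plates; 48 h exposure; 5 concentrations. Endpoints by linear interpolation between flanking doses. Not reached: highest tested concentration assigned. Abbreviation: GI50, concentration required for 50% inhibition of growth. TGI is the concentration that stops growth completely.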

How the values were obtained:
Assay in all cases: NCI tumour cell line growth inhibition, 48 h
786-0 renal = tested on: 786-0 renal
A498 renal = tested on: A498 renal
A549 NSCLC = tested on: A549 NSCLC
ACHN renal = tested on: ACHN renal
BT-549 breast = tested on: BT-549 breast
CAKI-1 renal = tested on: CAKI-1 renal
CCRF-CEM leukemia = tested on: CCRF-CEM leukemia
COLO 205 colon = tested on: COLO 205 colon
DU-145 prostate = tested on: DU-145 prostate
EKVX NSCLC = tested on: EKVX NSCLC
HCC-2998 colon = tested on: HCC-2998 colon
HCT-116 colon = tested on: HCT-116 colon
HCT-15 colon = tested on: HCT-15 colon
HL-60(TB) leukemia = tested on: HL-60(TB) leukemia
HOP-62 NSCLC = tested on: HOP-62 NSCLC
HOP-92 NSCLC = tested on: HOP-92 NSCLC
HS 578T breast = tested on: HS 578T breast
HT29 colon = tested on: HT29 colon
IGROV1 ovarian = tested on: IGROV1 ovarian
K-562 leukemia = tested on: K-562 leukemia
KM12 colon = tested on: KM12 colon
LOX IMVI melanoma = tested on: LOX IMVI melanoma
M14 melanoma = tested on: M14 melanoma
MALME-3M melanoma = tested on: MALME-3M melanoma
MCF7 breast = tested on: MCF7 breast
MDA-MB-231 breast = tested on: MDA-MB-231 breast
MDA-MB-435 = tested on: MDA-MB-435
MOLT-4 leukemia = tested on: MOLT-4 leukemia
NCI-H226 lung = tested on: NCI-H226 lung
NCI-H23 lung = tested on: NCI-H23 lung
NCI-H460 lung = tested on: NCI-H460 lung
NCI-H522 lung = tested on: NCI-H522 lung
NCI/ADR-RES ovarian = tested on: NCI/ADR-RES ovarian
OVCAR-3 ovarian = tested on: OVCAR-3 ovarian
OVCAR-4 ovarian = tested on: OVCAR-4 ovarian
OVCAR-5 ovarian = tested on: OVCAR-5 ovarian
OVCAR-8 ovarian = tested on: OVCAR-8 ovarian
PC-3 prostate = tested on: PC-3 prostate
RPMI-8226 leukemia = tested on: RPMI-8226 leukemia
RXF 393 renal = tested on: RXF 393 renal
SF-268 CNS = tested on: SF-268 CNS
SF-295 CNS = tested on: SF-295 CNS
SF-539 CNS = tested on: SF-539 CNS
SK-MEL-28 melanoma = tested on: SK-MEL-28 melanoma
SK-MEL-5 melanoma = tested on: SK-MEL-5 melanoma
SK-OV-3 ovarian = tested on: SK-OV-3 ovarian
SN12C renal = tested on: SN12C renal
SNB-19 CNS = tested on: SNB-19 CNS
SR leukemia = tested on: SR leukemia
SW-620 colon = tested on: SW-620 colon
T-47D breast = tested on: T-47D breast
TK-10 renal = tested on: TK-10 renal
U251 CNS = tested on: U251 CNS
UACC-257 melanoma = tested on: UACC-257 melanoma
UACC-62 melanoma = tested on: UACC-62 melanoma
UO-31 renal = tested on: UO-31 renal

O=C(/C=C\Sc1ccccn1)c1cccc(Br)c1
GI50 (786-0 renal): 2670 nM
TGI (786-0 renal): 6.48 µM
GI50 (A498 renal): 19.5 µM
TGI (A498 renal): 36.5 µM
GI50 (A549 NSCLC): 23 µM
TGI (A549 NSCLC): 80.3 µM
GI50 (ACHN renal): 1650 nM
TGI (ACHN renal): 3 µM
GI50 (BT-549 breast): 7.29 µM
TGI (BT-549 breast): 32 µM
GI50 (CAKI-1 renal): 3.99 µM
TGI (CAKI-1 renal): 17.2 µM
GI50 (CCRF-CEM leukemia): 3000 nM
TGI (CCRF-CEM leukemia): > 100 µM
GI50 (COLO 205 colon): 5.27 µM
TGI (COLO 205 colon): > 100 µM
GI50 (DU-145 prostate): 16.3 µM
TGI (DU-145 prostate): 30.7 µM
GI50 (EKVX NSCLC): 19.3 µM
TGI (EKVX NSCLC): 35.7 µM
GI50 (HCC-2998 colon): 3.9 µM
TGI (HCC-2998 colon): 15 µM
GI50 (HCT-116 colon): 1950 nM
TGI (HCT-116 colon): 3.85 µM
GI50 (HCT-15 colon): 1400 nM
TGI (HCT-15 colon): 3.23 µM
GI50 (HL-60(TB) leukemia): 2250 nM
TGI (HL-60(TB) leukemia): 6.32 µM
GI50 (HOP-62 NSCLC): 17.4 µM
TGI (HOP-62 NSCLC): 33.7 µM
GI50 (HOP-92 NSCLC): 2640 nM
TGI (HOP-92 NSCLC): 7.85 µM
GI50 (HS 578T breast): 19.5 µM
TGI (HS 578T breast): 83.3 µM
GI50 (HT29 colon): 3.46 µM
TGI (HT29 colon): > 100 µM
GI50 (IGROV1 ovarian): 16.5 µM
TGI (IGROV1 ovarian): 50.4 µM
GI50 (K-562 leukemia): 2230 nM
TGI (K-562 leukemia): 6.63 µM
GI50 (KM12 colon): 13.4 µM
TGI (KM12 colon): 28.8 µM
GI50 (LOX IMVI melanoma): 1690 nM
TGI (LOX IMVI melanoma): 3.12 µM
GI50 (M14 melanoma): 15 µM
TGI (M14 melanoma): 43.4 µM
GI50 (MALME-3M melanoma): 2830 nM
TGI (MALME-3M melanoma): 8.97 µM
GI50 (MCF7 breast): 1770 nM
TGI (MCF7 breast): 6.18 µM
GI50 (MDA-MB-231 breast): 2350 nM
TGI (MDA-MB-231 breast): 5.96 µM
GI50 (MDA-MB-435): 9.12 µM
TGI (MDA-MB-435): 77.9 µM
GI50 (MOLT-4 leukemia): 1600 nM
TGI (MOLT-4 leukemia): 4.23 µM
GI50 (NCI-H226 lung): 2320 nM
TGI (NCI-H226 lung): 5.46 µM
GI50 (NCI-H23 lung): 10.8 µM
TGI (NCI-H23 lung): 25.1 µM
GI50 (NCI-H460 lung): 9.41 µM
TGI (NCI-H460 lung): 29.6 µM
GI50 (NCI-H522 lung): 2280 nM
TGI (NCI-H522 lung): 5.84 µM
GI50 (NCI/ADR-RES ovarian): 8.8 µM
TGI (NCI/ADR-RES ovarian): > 100 µM
GI50 (OVCAR-3 ovarian): 5.54 µM
TGI (OVCAR-3 ovarian): 24.2 µM
GI50 (OVCAR-4 ovarian): 5.71 µM
TGI (OVCAR-4 ovarian): > 100 µM
GI50 (OVCAR-5 ovarian): 15 µM
TGI (OVCAR-5 ovarian): 29.5 µM
GI50 (OVCAR-8 ovarian): 3.53 µM
TGI (OVCAR-8 ovarian): > 100 µM
GI50 (PC-3 prostate): 7.68 µM
TGI (PC-3 prostate): 22.5 µM
GI50 (RPMI-8226 leukemia): 78.7 nM
TGI (RPMI-8226 leukemia): > 100 µM
GI50 (RXF 393 renal): 2640 nM
TGI (RXF 393 renal): 8.62 µM
GI50 (SF-268 CNS): 6.53 µM
TGI (SF-268 CNS): 26.4 µM
GI50 (SF-295 CNS): 16 µM
TGI (SF-295 CNS): 39.6 µM
GI50 (SF-539 CNS): 8.15 µM
TGI (SF-539 CNS): 25 µM
GI50 (SK-MEL-28 melanoma): 8.65 µM
TGI (SK-MEL-28 melanoma): > 100 µM
GI50 (SK-MEL-5 melanoma): 14.1 µM
TGI (SK-MEL-5 melanoma): 28 µM
GI50 (SK-OV-3 ovarian): > 100 µM
TGI (SK-OV-3 ovarian): > 100 µM
GI50 (SN12C renal): 10.2 µM
TGI (SN12C renal): 24.3 µM
GI50 (SNB-19 CNS): 39.1 µM
TGI (SNB-19 CNS): > 100 µM
GI50 (SR leukemia): 1680 nM
TGI (SR leukemia): 3.79 µM
GI50 (SW-620 colon): 2820 nM
TGI (SW-620 colon): 8.41 µM
GI50 (T-47D breast): 7.54 µM
TGI (T-47D breast): > 100 µM
GI50 (TK-10 renal): 3.25 µM
TGI (TK-10 renal): 12.2 µM
GI50 (U251 CNS): 10.2 µM
TGI (U251 CNS): 21.8 µM
GI50 (UACC-257 melanoma): 21.2 µM
TGI (UACC-257 melanoma): 43.4 µM
GI50 (UACC-62 melanoma): 11.7 µM
TGI (UACC-62 melanoma): 24.5 µM
GI50 (UO-31 renal): 5.15 µM
TGI (UO-31 renal): 23.1 µM
